Data taken from patent US11000033B2, “Ketone or oxime compound, and herbicide” (NISSAN CHEMICAL CORPORATION, priority 2014, dated 2021).

Legend:
Type in all cases: in vivo
Scirpus juncoides = assay: Test Example 1: herbicidal activity, application before weed generation in submerged conditions (symbol B); conditions: application herbicide amount 320 g/ha
Summary of the method: (§1)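 Application before weed emergence: an aqueous dilution of the emulsion formulation was poured onto the surface of 4 cm-deep floodwater on the day of sowing. Effect was judged after 3 weeks (greenhouse, 25–30 °C).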

Abutilon theophrasti = assay: Test Example 5: herbicidal effect by foliage application, plastic box (symbol M); conditions: 320 g/ha, 3 weeks after application
Summary of the method: (§2)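 Herbicide, formulated as an emulsion and diluted in water, is sprayed onto the aerial parts of 14-day seedlings. These were grown at 25° C. to 30° C. in sterilized diluvial soil; effects are graded after 3 weeks.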

Galium spurium = assay: Test Example 5: herbicidal effect by foliage application, plastic box (symbol Q); conditions: 320 g/ha, 3 weeks after application
Summary of the method: as §2

[1] = test system: Echinochloa crus-galli var. crus-galli; assay: Test Example 3: herbicidal effect by foliage application, Wagner pot (symbol H); conditions: application herbicide amount 320 g/ha
Summary of the method: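 Foliar spray of a water-diluted emulsion at a predetermined herbicide amount, applied to 14-day-old plants. Seedlings were raised in flooded alluvial soil (0.1–0.5 cm water) at 25–30 °C in a greenhouse. Injury was rated after 3 weeks against fixed criteria.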

Lolium multiflorum Lam. = assay: Test Example 4: herbicidal effect by soil treatment (symbol K); conditions: application herbicide amount 320 g/ha
Summary of the method: (§3)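 Seeds were sown in sterilized diluvial soil, covered with about 1.5 cm of soil, and the soil surface was sprayed with a water-diluted emulsion of the compound at a predetermined rate. Plants grew in a greenhouse at 25° C. to 30° C.; effects were scored visually 3 weeks after application.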

Setaria viridis [2] = assay: Test Example 5: herbicidal effect by foliage application, plastic box (symbol G); conditions: 320 g/ha, 3 weeks after application
Summary of the method: as §2

soybean [3] = assay: Test Example 5: effect on crop by foliage application, plastic box (symbol d); conditions: 320 g/ha, 3 weeks after application
Summary of the method: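 Greenhouse test at 25° C. to 30° C. Seeds of crops and weeds were spot-sown in boxes of sterilized diluvial soil under roughly 1.5 cm soil cover, then grown for foliage treatment.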

wheat = assay: Test Example 4: effect on crop by soil treatment (symbol e); conditions: application herbicide amount 320 g/ha
Summary of the method: (§4)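 Soil-treatment setup: crop and weed seeds were spot-sown into sterilized diluvial soil, then buried beneath approximately 1.5 cm of it, and the boxes were housed in a 25–30° C. greenhouse.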

[4] = test system: Echinochloa crus-galli var. crus-galli; assay: Test Example 5: herbicidal effect by foliage application, plastic box (symbol H); conditions: 320 g/ha, 3 weeks after application
Summary of the method: as §2

Amaranthus retroflexus [5] = assay: Test Example 5: herbicidal effect by foliage application, plastic box (symbol N); conditions: 320 g/ha, 3 weeks after application
Summary of the method: as §2

Apera spica-venti = assay: Test Example 4: herbicidal effect by soil treatment (symbol L); conditions: application herbicide amount 320 g/ha
Summary of the method: as §3

beet = assay: Test Example 4: effect on crop by soil treatment (symbol f); conditions: application herbicide amount 320 g/ha
Summary of the method: as §4

Monochoria vaginalis = assay: Test Example 1: herbicidal activity, application before weed generation in submerged conditions (symbol C); conditions: application herbicide amount 320 g/ha
Summary of the method: as §1

Setaria viridis [6] = assay: Test Example 4: herbicidal effect by soil treatment (symbol G); conditions: application herbicide amount 320 g/ha
Summary of the method: as §3

Amaranthus retroflexus [7] = assay: Test Example 4: herbicidal effect by soil treatment (symbol N); conditions: application herbicide amount 320 g/ha
Summary of the method: as §3

Avena fatua = assay: Test Example 4: herbicidal effect by soil treatment (symbol I); conditions: application herbicide amount 320 g/ha
Summary of the method: as §3

soybean [8] = assay: Test Example 4: effect on crop by soil treatment (symbol d); conditions: application herbicide amount 320 g/ha
Summary of the method: as §4

Chenopodium album [9] = assay: Test Example 4: herbicidal effect by soil treatment (symbol O); conditions: application herbicide amount 320 g/ha
Summary of the method: as §3

Chenopodium album [10] = assay: Test Example 5: herbicidal effect by foliage application, plastic box (symbol O); conditions: 320 g/ha, 3 weeks after application
Summary of the method: as §2

Structure (SMILES) | Herbicidal effect grade, B: Scirpus juncoides (Scirpus juncoides) | M: Abutilon theophrasti, herbicidal effect grade (Abutilon theophrasti) | Q: Galium spurium, herbicidal effect grade (Galium spurium) | herbicidal effect on H (Echinochloa crus-galli var. crus-galli), grade 0-5 [1] | K: Lolium multiflorum Lam., herbicidal effect grade (Lolium multiflorum Lam.) | G: Setaria viridis, herbicidal effect grade (Setaria viridis [2]) | d: soybean, effect on crop grade (soybean [3]) | e: wheat, effect on crop grade (wheat) | H: Echinochloa crus-galli var. crus-galli, herbicidal effect grade [4] | N: Amaranthus retroflexus, herbicidal effect grade (Amaranthus retroflexus [5]) | L: Apera spica-venti, herbicidal effect grade (Apera spica-venti) | f: beet, effect on crop grade (beet) | Herbicidal effect grade, C: Monochoria vaginalis (Monochoria vaginalis) | G: Setaria viridis, herbicidal effect grade (Setaria viridis [6]) | N: Amaranthus retroflexus, herbicidal effect grade (Amaranthus retroflexus [7]) | I: Avena fatua, herbicidal effect grade (Avena fatua) | d: soybean, effect on crop grade (soybean [8]) | O: Chenopodium album, herbicidal effect grade (Chenopodium album [9]) | O: Chenopodium album, herbicidal effect grade (Chenopodium album [10])
CCCC(=O)CC1CC(O)=C(c2c(C)cc(C)cc2C)C1=O (stereo not shown) [2-021] | 4 (Herbicidal ratio of 70% or higher and lower than 90%) | 0 (Herbicidal ratio of 5% or lower (almost no effect)) | 0 (Herbicidal ratio of 5% or lower (almost no effect)) | 5 (Herbicidal ratio of 90% or more (almost completely withered)) | 5 (Herbicidal ratio of 90% or more (almost completely withered)) | 4 (Herbicidal ratio of 70% or higher and lower than 90%) | 0 (Herbicidal ratio of 5% or lower (almost no effect)) | 0 (Herbicidal ratio of 5% or lower (almost no effect)) | 4 (Herbicidal ratio of 70% or higher and lower than 90%) | 0 (Herbicidal ratio of 5% or lower (almost no effect)) | 0 (Herbicidal ratio of 5% or lower (almost no effect)) | 0 (Herbicidal ratio of 5% or lower (almost no effect)) | 2 (Herbicidal ratio of 20% or higher and lower than 40%) | 5 (Herbicidal ratio of 90% or more (almost completely withered)) | 2 (Herbicidal ratio of 20% or higher and lower than 40%) | 0 (Herbicidal ratio of 5% or lower (almost no effect)) | 0 (Herbicidal ratio of 5% or lower (almost no effect)) | 0 (Herbicidal ratio of 5% or lower (almost no effect)) | 0 (Herbicidal ratio of 5% or lower (almost no effect))
CCC(=O)CC1CC(O)=C(c2c(C)cc(C)cc2C)C1=O (stereo not shown) [2-006] | 2 (Herbicidal ratio of 20% or higher and lower than 40%) | 0 (Herbicidal ratio of 5% or lower (almost no effect)) | 0 (Herbicidal ratio of 5% or lower (almost no effect)) | 5 (Herbicidal ratio of 90% or more (almost completely withered)) | 5 (Herbicidal ratio of 90% or more (almost completely withered)) | 3 (Herbicidal ratio of 40% or higher and lower than 70%) | 0 (Herbicidal ratio of 5% or lower (almost no effect)) | 0 (Herbicidal ratio of 5% or lower (almost no effect)) | 4 (Herbicidal ratio of 70% or higher and lower than 90%) | 0 (Herbicidal ratio of 5% or lower (almost no effect)) | 5 (Herbicidal ratio of 90% or more (almost completely withered)) | 0 (Herbicidal ratio of 5% or lower (almost no effect)) | 3 (Herbicidal ratio of 40% or higher and lower than 70%) | 5 (Herbicidal ratio of 90% or more (almost completely withered)) | 0 (Herbicidal ratio of 5% or lower (almost no effect)) | 3 (Herbicidal ratio of 40% or higher and lower than 70%) | 0 (Herbicidal ratio of 5% or lower (almost no effect)) | 0 (Herbicidal ratio of 5% or lower (almost no effect)) | 0 (Herbicidal ratio of 5% or lower (almost no effect))
COC(=O)C(C(=O)C1CC1)C1CC(O)=C(c2c(C)cc(C)cc2C)C1=O (stereo not shown) [2-014] | 3 (Herbicidal ratio of 40% or higher and lower than 70%) | 3 (Herbicidal ratio of 40% or higher and lower than 70%) | 0 (Herbicidal ratio of 5% or lower (almost no effect)) | 5 (Herbicidal ratio of 90% or more (almost completely withered)) | 4 (Herbicidal ratio of 70% or higher and lower than 90%) | 5 (Herbicidal ratio of 90% or more (almost completely withered)) | 0 (Herbicidal ratio of 5% or lower (almost no effect)) | 0 (Herbicidal ratio of 5% or lower (almost no effect)) | 5 (Herbicidal ratio of 90% or more (almost completely withered)) | 0 (Herbicidal ratio of 5% or lower (almost no effect)) | 2 (Herbicidal ratio of 20% or higher and lower than 40%) | 0 (Herbicidal ratio of 5% or lower (almost no effect)) | 1 (Herbicidal ratio of 5% or higher and lower than 20%) | 5 (Herbicidal ratio of 90% or more (almost completely withered)) | 0 (Herbicidal ratio of 5% or lower (almost no effect)) | 0 (Herbicidal ratio of 5% or lower (almost no effect)) | 0 (Herbicidal ratio of 5% or lower (almost no effect)) | 0 (Herbicidal ratio of 5% or lower (almost no effect)) | 0 (Herbicidal ratio of 5% or lower (almost no effect))
CC#Cc1cc(C)c(C2=C(O)CC(CC(C)=NOC)C2=O)c(CC)c1 (mixture of isomers) [6-006] | 5 (Herbicidal ratio of 90% or more (almost completely withered)) | 0 (Herbicidal ratio of 5% or lower (almost no effect)) | 0 (Herbicidal ratio of 5% or lower (almost no effect)) | 5 (Herbicidal ratio of 90% or more (almost completely withered)) | 5 (Herbicidal ratio of 90% or more (almost completely withered)) | 3 (Herbicidal ratio of 40% or higher and lower than 70%) | 0 (Herbicidal ratio of 5% or lower (almost no effect)) | 5 (Herbicidal ratio of 90% or more (almost completely withered)) | 4 (Herbicidal ratio of 70% or higher and lower than 90%) | 0 (Herbicidal ratio of 5% or lower (almost no effect)) | 5 (Herbicidal ratio of 90% or more (almost completely withered)) | 0 (Herbicidal ratio of 5% or lower (almost no effect)) | 1 (Herbicidal ratio of 5% or higher and lower than 20%) | 5 (Herbicidal ratio of 90% or more (almost completely withered)) | 3 (Herbicidal ratio of 40% or higher and lower than 70%) | 4 (Herbicidal ratio of 70% or higher and lower than 90%) | 0 (Herbicidal ratio of 5% or lower (almost no effect)) | 0 (Herbicidal ratio of 5% or lower (almost no effect)) | 0 (Herbicidal ratio of 5% or lower (almost no effect))
